{"source": "patent US20100209542A1", "about": "“Methods For Treating Withdrawal From Addictive Compounds” (priority 2008, published 2010)", "key": {"opioid receptors": {"test_system": "opioid receptors", "details": "guinea pig ileum, compared with morphine; cited from earlier work"}, "mice": {"test_system": "mice", "details": "cited from earlier work"}, "withdrawal symptoms": {"test_system": "withdrawal symptoms", "assay": "compound followed by naloxone administration (control values)", "type": "in vivo, mice", "method": "(§1) In this experiment mice were chronically administered either morphine using an increasing dose paradigm starting at 20 mg/kg and ending at 100 mg/kg (i.p.) or a saline vehicle control for six days. […] Morphine withdrawal symptoms were initiated by the injection of naloxone (10 mg/kg; i.p.). Kratom extract and mitragyine reduced naloxone-precipitated morphine withdrawal symptoms in a similar manner as methadone."}, "[1]": {"test_system": "morphine withdrawal symptoms", "assay": "naloxone-precipitated morphine withdrawal symptoms after replacement with compound", "type": "in vivo, mice", "details": "for Jumping Frequency / Last Day % Weight Control / Locomotor Activity / Paw Tremor Frequency / Teeth Chattering Frequency / Wet Dog Shakes Frequency: + 10 mg/kg naloxone i.p.", "method": "as §1"}, "delta-opioid receptor": {"molecular_target": "T1, delta-opioid receptor (Cavia porcellus, UniProt A0A286XTF2)", "T1 construct": "determined using guinea pig brain membranes; from tissue; host or cells: guinea pig brain membranes", "T1 sequence (A0A286XTF2 1-366)": "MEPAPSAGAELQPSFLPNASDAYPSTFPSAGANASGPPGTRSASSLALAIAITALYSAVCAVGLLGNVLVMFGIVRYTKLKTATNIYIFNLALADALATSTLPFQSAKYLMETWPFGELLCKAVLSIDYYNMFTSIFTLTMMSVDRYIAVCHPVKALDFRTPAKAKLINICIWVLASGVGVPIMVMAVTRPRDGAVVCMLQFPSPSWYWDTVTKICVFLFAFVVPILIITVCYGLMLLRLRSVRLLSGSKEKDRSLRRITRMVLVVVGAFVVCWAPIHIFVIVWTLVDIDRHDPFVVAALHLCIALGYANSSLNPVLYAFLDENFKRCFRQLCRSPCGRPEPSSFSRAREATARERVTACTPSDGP", "details": "guinea pig brain membranes; cited from earlier work"}, "[2]": {"assay": "mitragynine sample stability in validation of the detection method", "details": "short-term (4 h at room temperature), freeze-thaw (3 cycles), post-processing (16 h at 12° C.); any concentration tested", "description": "The coefficient of variation and relative error values at the three concentrations were obtained in the intra- and inter-day assays. See, FIG. 3."}, "Serotonin, 5HT2C": {"molecular_target": "T2, Serotonin, 5HT2C (Homo sapiens, UniProt P28335)", "T2 construct": "Novascreen Biosciences Corp", "T2 sequence (P28335 33-458)": "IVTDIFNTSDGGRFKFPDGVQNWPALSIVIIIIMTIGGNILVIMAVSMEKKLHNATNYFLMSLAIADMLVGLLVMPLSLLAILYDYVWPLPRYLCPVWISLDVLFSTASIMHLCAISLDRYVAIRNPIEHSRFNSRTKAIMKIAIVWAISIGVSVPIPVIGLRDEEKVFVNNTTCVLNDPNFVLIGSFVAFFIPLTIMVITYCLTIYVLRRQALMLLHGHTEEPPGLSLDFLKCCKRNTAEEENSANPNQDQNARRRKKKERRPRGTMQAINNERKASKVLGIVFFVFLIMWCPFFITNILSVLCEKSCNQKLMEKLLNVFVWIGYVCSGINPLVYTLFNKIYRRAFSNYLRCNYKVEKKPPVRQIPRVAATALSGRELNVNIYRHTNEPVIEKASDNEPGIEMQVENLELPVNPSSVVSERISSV", "assay": "high throughput radioligand binding screen, Serotonin 5HT2C"}, "Adenosine A2A": {"molecular_target": "T3, Adenosine A2A (Homo sapiens, UniProt P29274)", "T3 construct": "Novascreen Biosciences Corp", "T3 sequence (P29274 whole entry)": "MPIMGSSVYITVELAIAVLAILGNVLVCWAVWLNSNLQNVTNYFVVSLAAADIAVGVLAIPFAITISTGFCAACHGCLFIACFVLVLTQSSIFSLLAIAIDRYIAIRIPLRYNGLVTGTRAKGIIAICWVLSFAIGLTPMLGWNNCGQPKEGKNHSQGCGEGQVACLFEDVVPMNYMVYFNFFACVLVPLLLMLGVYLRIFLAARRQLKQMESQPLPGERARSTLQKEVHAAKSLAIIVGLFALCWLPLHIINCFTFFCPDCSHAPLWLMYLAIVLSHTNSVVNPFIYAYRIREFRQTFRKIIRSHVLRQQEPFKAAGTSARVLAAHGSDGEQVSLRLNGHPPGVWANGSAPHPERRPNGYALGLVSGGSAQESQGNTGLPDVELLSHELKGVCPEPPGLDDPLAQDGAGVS", "assay": "high throughput radioligand binding screen, Adenosine A2A"}, "Serotonin, 5HT7": {"molecular_target": "T4, Serotonin, 5HT7 (Homo sapiens, UniProt P34969)", "T4 construct": "Novascreen Biosciences Corp", "T4 sequence (P34969 whole entry)": "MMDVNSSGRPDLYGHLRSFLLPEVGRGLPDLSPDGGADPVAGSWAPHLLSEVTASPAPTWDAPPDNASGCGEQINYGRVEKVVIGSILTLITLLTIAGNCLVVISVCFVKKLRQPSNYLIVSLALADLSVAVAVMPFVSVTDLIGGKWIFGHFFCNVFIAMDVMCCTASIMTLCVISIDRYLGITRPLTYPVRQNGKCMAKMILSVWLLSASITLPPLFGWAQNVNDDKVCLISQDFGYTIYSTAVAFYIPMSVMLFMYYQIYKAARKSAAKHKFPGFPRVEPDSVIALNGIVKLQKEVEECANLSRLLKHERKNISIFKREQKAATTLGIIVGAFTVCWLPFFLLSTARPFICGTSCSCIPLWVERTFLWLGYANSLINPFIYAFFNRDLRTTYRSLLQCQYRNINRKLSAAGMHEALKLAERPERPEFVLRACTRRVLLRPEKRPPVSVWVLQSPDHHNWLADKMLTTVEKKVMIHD", "assay": "high throughput radioligand binding screen, Serotonin 5HT7"}, "Dopamine D2": {"molecular_target": "T5, Dopamine D2 (Homo sapiens, UniProt P14416)", "T5 construct": "Novascreen Biosciences Corp", "T5 sequence (P14416 whole entry)": "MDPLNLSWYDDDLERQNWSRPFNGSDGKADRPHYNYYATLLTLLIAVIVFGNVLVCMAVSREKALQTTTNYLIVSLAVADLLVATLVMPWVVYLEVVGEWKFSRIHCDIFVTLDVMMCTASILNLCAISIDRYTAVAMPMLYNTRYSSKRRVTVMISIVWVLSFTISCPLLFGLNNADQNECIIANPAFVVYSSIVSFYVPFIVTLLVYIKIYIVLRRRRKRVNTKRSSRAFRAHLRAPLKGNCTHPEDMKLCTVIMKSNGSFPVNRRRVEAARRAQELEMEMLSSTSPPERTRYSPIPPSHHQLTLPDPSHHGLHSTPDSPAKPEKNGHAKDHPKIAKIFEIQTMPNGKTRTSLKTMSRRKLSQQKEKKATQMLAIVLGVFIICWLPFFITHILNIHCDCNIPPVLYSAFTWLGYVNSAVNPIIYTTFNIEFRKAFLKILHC", "assay": "high throughput radioligand binding screen, Dopamine D2"}, "[3]": {"details": "animal studies; cited from earlier work"}, "respiratory depression": {"test_system": "respiratory depression", "details": "rat, even at doses of 800 mg/kg, intraperitoneal; cited from earlier work"}, "Adrenergic (Alpha 2)": {"test_system": "Adrenergic (Alpha 2)", "assay": "high throughput radioligand binding screen, Adrenergic (Alpha 2)"}, "[4]": {"details": "no morphine, compound 23 mg/kg p.o. + 10 mg/kg naloxone i.p."}, "[5]": {"details": "no morphine, compound 100 mg/kg p.o. + 10 mg/kg naloxone i.p."}, "[6]": {"details": "morphine 20-100 mg/kg i.p., then compound 23 mg/kg p.o."}, "[7]": {"details": "morphine 20-100 mg/kg i.p., then compound 100 mg/kg p.o."}, "[8]": {"details": "morphine i.p. + 10 mg/kg naloxone i.p."}, "[9]": {"details": "morphine 20-100 mg/kg i.p. control, no replacement compound"}, "[10]": {"details": "naloxone i.p. group, no morphine"}}, "data": [{"smiles": "CC[C@@H]1CN2CC[C@@]3(O)C(=Nc4cccc(OC)c43)[C@@H]2C[C@@H]1/C(=C\\OC)C(=O)OC", "note": "[7-hydroxymitragynine]", "values": [{"measurement": "opioid agonist potency", "setting": "opioid receptors", "result": "higher potency than morphine"}, {"measurement": "antinociceptive activity", "setting": "mice", "result": "potent antinociceptive activity"}]}, {"smiles": "CCC(=O)C(CC(C)N(C)C)(c1ccccc1)c1ccccc1", "note": "(centres unmarked) [Methadone, methadone]", "values": [{"measurement": "Jumping Frequency", "setting": "withdrawal symptoms; [4]", "result": "0.00 ± 0.00"}, {"measurement": "Last Day % Weight Control", "setting": "withdrawal symptoms; [4]", "result": "96.64 ± 1.046", "unit": "%"}, {"measurement": "Locomotor Activity", "setting": "withdrawal symptoms; [4]", "result": "2595 ± 288.4"}, {"measurement": "Paw Tremor Frequency", "setting": "withdrawal symptoms; [4]", "result": "6.400 ± 1.462"}, {"measurement": "Teeth Chattering Frequency", "setting": "withdrawal symptoms; [4]", "result": "0.00 ± 0.00"}, {"measurement": "Wet Dog Shakes Frequency", "setting": "withdrawal symptoms; [4]", "result": "2.000 ± 0.5164"}, {"measurement": "Jumping Frequency", "setting": "withdrawal symptoms; [5]", "result": "0.00 ± 0.00"}, {"measurement": "Last Day % Weight Control", "setting": "withdrawal symptoms; [5]", "result": "98.30 ± 0.6976", "unit": "%"}, {"measurement": "Paw Tremor Frequency", "setting": "withdrawal symptoms; [5]", "result": "5.000 ± 1.549"}, {"measurement": "Teeth Chattering Frequency", "setting": "withdrawal symptoms; [5]", "result": "0.00 ± 0.00"}, {"measurement": "Wet Dog Shakes Frequency", "setting": "withdrawal symptoms; [5]", "result": "1.900 ± 0.5859"}, {"measurement": "Jumping Frequency", "setting": "[1]; [6]", "result": "0.00 ± 0.00"}, {"measurement": "Last Day % Weight Control", "setting": "[1]; [6]", "result": "100.1 ± 0.8121", "unit": "%"}, {"measurement": "Locomotor Activity", "setting": "[1]; [6]", "result": "1866 ± 225.9"}, {"measurement": "Paw Tremor Frequency", "setting": "[1]; [6]", "result": "110.7 ± 8.809"}, {"measurement": "Teeth Chattering Frequency", "setting": "[1]; [6]", "result": "81.20 ± 8.704"}, {"measurement": "Wet Dog Shakes Frequency", "setting": "[1]; [6]", "result": "5.600 ± 0.9684"}, {"measurement": "Jumping Frequency", "setting": "[1]; [7]", "result": "1.111 ± 0.7536"}, {"measurement": "Last Day % Weight Control", "setting": "[1]; [7]", "result": "100.1 ± 1.205", "unit": "%"}, {"measurement": "Locomotor Activity", "setting": "[1]; [7]", "result": "2512 ± 131.5"}, {"measurement": "Paw Tremor Frequency", "setting": "[1]; [7]", "result": "8.444 ± 1.692"}, {"measurement": "Teeth Chattering Frequency", "setting": "[1]; [7]", "result": "0.00 ± 0.00"}, {"measurement": "Wet Dog Shakes Frequency", "setting": "[1]; [7]", "result": "0.6667 ± 0.3333"}]}, {"smiles": "CN1CC[C@]23c4c5ccc(O)c4O[C@H]2[C@@H](O)C=C[C@H]3[C@H]1C5", "note": "[Morphine, morphine]", "values": [{"measurement": "Jumping Frequency", "setting": "withdrawal symptoms; [8]", "result": "21.6 ± 4.378"}, {"measurement": "Last Day % Weight Control", "setting": "withdrawal symptoms; [8]", "result": "89.64 ± 0.6012", "unit": "%"}, {"measurement": "Locomotor Activity", "setting": "withdrawal symptoms; [8]", "result": "1870 ± 114.2"}, {"measurement": "Paw Tremor Frequency", "setting": "withdrawal symptoms; [8]", "result": "156.2 ± 7.124"}, {"measurement": "Teeth Chattering Frequency", "setting": "withdrawal symptoms; [8]", "result": "76.10 ± 6.572"}, {"measurement": "Wet Dog Shakes Frequency", "setting": "withdrawal symptoms; [8]", "result": "9.433 ± 1.334"}, {"measurement": "Jumping Frequency", "setting": "[1]; [9]", "result": "21.6 ± 4.378"}, {"measurement": "Last Day % Weight Control", "setting": "[1]; [9]", "result": "89.64 ± 0.6012", "unit": "%"}, {"measurement": "Locomotor Activity", "setting": "[1]; [9]", "result": "1870 ± 114.2"}, {"measurement": "Paw Tremor Frequency", "setting": "[1]; [9]", "result": "156.2 ± 7.124"}, {"measurement": "Teeth Chattering Frequency", "setting": "[1]; [9]", "result": "76.10 ± 6.572"}, {"measurement": "Wet Dog Shakes Frequency", "setting": "[1]; [9]", "result": "9.433 ± 1.334"}]}, {"smiles": "C=CCN1CC[C@]23c4c5ccc(O)c4O[C@H]2C(=O)CC[C@@]3(O)[C@H]1C5", "note": "[Naloxone, naloxone]", "values": [{"measurement": "Jumping Frequency", "setting": "withdrawal symptoms; [10]", "result": "1.800 ± 0.9978"}, {"measurement": "Last Day % Weight Control", "setting": "withdrawal symptoms; [10]", "result": "99.94 ± 1.225", "unit": "%"}, {"measurement": "Locomotor Activity", "setting": "withdrawal symptoms; [10]", "result": "3291 ± 145.3"}, {"measurement": "Paw Tremor Frequency", "setting": "withdrawal symptoms; [10]", "result": "3.800 ± 0.9978"}, {"measurement": "Teeth Chattering Frequency", "setting": "withdrawal symptoms; [10]", "result": "0.00 ± 0.00"}, {"measurement": "Wet Dog Shakes Frequency", "setting": "withdrawal symptoms; [10]", "result": "0.6000 ± 0.3399"}]}, {"smiles": "CC[C@@H]1CN2CC[C@]3(Nc4cccc(OC)c4C3=O)[C@@H]2C[C@@H]1/C(=C\\OC)C(=O)OC", "note": "[mitragynine pseudoindoxyl]", "values": [{"measurement": "opioid agonist potency", "setting": "opioid receptors", "result": "higher potency than morphine"}]}, {"smiles": "CC[C@@H]1CN2CCc3c([nH]c4cccc(OC)c34)[C@@H]2C[C@@H]1/C(=C\\OC)C(=O)OC", "note": "[mitragynine]", "values": [{"measurement": "pKi", "setting": "delta-opioid receptor", "result": "7.22±0.21"}, {"measurement": "sample stability, variation", "setting": "[2]", "result": "≤ 15", "unit": "%"}, {"measurement": "Percentage inhibition of radioligand binding", "setting": "Serotonin, 5HT2C", "result": "Serotonin, 5HT2C: 58.77"}, {"measurement": "Jumping Frequency", "setting": "withdrawal symptoms; [4]", "result": "0.00 ± 0.00"}, {"measurement": "Last Day % Weight Control", "setting": "withdrawal symptoms; [4]", "result": "98.85 ± 0.8938", "unit": "%"}, {"measurement": "Locomotor Activity", "setting": "withdrawal symptoms; [4]", "result": "3010 ± 108.1"}, {"measurement": "Paw Tremor Frequency", "setting": "withdrawal symptoms; [4]", "result": "1.800 ± 0.6464"}, {"measurement": "Teeth Chattering Frequency", "setting": "withdrawal symptoms; [4]", "result": "0.00 ± 0.00"}, {"measurement": "Wet Dog Shakes Frequency", "setting": "withdrawal symptoms; [4]", "result": "0.00 ± 0.00"}, {"measurement": "Percentage inhibition of radioligand binding", "setting": "Adenosine A2A", "result": "Adenosine A2A: 65.66"}, {"measurement": "Percentage inhibition of radioligand binding", "setting": "Serotonin, 5HT7", "result": "Serotonin, 5HT7: 64.41"}, {"measurement": "Percentage inhibition of radioligand binding", "setting": "Dopamine D2", "result": "Dopamine D2: 54.22"}, {"measurement": "naloxone-precipitated morphine withdrawal symptoms", "setting": "[1]; mice, p.o. for six days after morphine, in a similar manner as methadone", "result": "reduced"}, {"measurement": "Jumping Frequency", "setting": "[1]; [6]", "result": "0.00 ± 0.00"}, {"measurement": "Last Day % Weight Control", "setting": "[1]; [6]", "result": "101.3 ± 0.8619", "unit": "%"}, {"measurement": "Locomotor Activity", "setting": "[1]; [6]", "result": "2485 ± 119.1"}, {"measurement": "Paw Tremor Frequency", "setting": "[1]; [6]", "result": "3.200 ± 0.7424"}, {"measurement": "Teeth Chattering Frequency", "setting": "[1]; [6]", "result": "0.00 ± 0.00"}, {"measurement": "Wet Dog Shakes Frequency", "setting": "[1]; [6]", "result": "0.6000 ± 0.2667"}, {"measurement": "analgesic and antitussive properties", "setting": "[3]", "result": "comparable to codeine"}, {"measurement": "opioid withdrawal syndrome", "setting": "[3]", "result": "suppressed"}, {"measurement": "respiratory depression compared with codeine", "setting": "[3]", "result": "much less respiratory depression"}, {"measurement": "respiratory depression", "setting": "respiratory depression", "result": "failed to identify respiratory depression"}, {"measurement": "Percentage inhibition of radioligand binding", "setting": "Adrenergic (Alpha 2)", "result": "Adrenergic (Alpha 2): 61.92"}]}]}
